{"source": "ChEMBL document CHEMBL1201862", "about": "“PubChem BioAssay data set” (2004)", "key": {"Streptokinase A": {"biological_target": "T1, Streptokinase A (Streptococcus pyogenes serotype M1, UniProt P10520)", "T1 sequence (P10520 whole entry)": "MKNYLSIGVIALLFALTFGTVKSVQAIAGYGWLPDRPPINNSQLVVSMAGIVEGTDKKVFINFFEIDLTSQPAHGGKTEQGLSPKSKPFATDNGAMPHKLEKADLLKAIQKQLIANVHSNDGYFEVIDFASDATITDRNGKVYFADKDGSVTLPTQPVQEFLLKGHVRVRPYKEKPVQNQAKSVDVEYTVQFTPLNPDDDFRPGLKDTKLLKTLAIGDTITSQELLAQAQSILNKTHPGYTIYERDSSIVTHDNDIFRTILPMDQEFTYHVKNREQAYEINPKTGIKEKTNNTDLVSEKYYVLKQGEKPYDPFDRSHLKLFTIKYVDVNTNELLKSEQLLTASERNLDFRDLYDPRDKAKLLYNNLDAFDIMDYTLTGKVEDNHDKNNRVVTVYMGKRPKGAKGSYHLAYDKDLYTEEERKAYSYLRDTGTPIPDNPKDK", "assay": "S. pyogenes streptokinase expression inhibitors, potency, dose response, plasminogen activation absorbance, OD405 (AID 1914);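 also: secreted streptokinase activity via plasminogen activation per viability signal from cell pellet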", "assay_type": "functional, Streptococcus pyogenes M1 GAS"}, "[1]": {"assay": "inhibitors of Vif binding to APOBEC3G peptide, primary screen, biochemical, TR-FRET, GST-Vif 1-94, biotin-A3G peptide, dose response retest (AID 1117319);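 also: TR-FRET signal of purified GST-Vif binding a biotinylated A3G peptide; inhibitors lower the FRET signal by blocking Vif and A3G binding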", "assay_type": "functional"}, "Streptococcus": {"system": "Streptococcus", "assay": "Group A Streptococcus viability loss, dose response, counter-screen for streptokinase expression inhibitor project, luminescence, BacTiterGlo (AID 1915);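 also: potency for reduction of bacterial viability or growth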", "assay_type": "functional, organism-based"}, "[2]": {"system": "Streptococcus sp. 'group A'", "assay": "growth inhibition of control SK(-) GAS strain, dose response, counter-screen for streptokinase expression inhibitor project, luminescence, kanamycin, BacTiterGlo, confirmation (AID 1900)", "assay_type": "functional, organism-based"}, "[3]": {"biological_target": "DNA dC->dU-editing enzyme APOBEC-3A (Homo sapiens, UniProt P31941)", "sequence (P31941 whole entry)": "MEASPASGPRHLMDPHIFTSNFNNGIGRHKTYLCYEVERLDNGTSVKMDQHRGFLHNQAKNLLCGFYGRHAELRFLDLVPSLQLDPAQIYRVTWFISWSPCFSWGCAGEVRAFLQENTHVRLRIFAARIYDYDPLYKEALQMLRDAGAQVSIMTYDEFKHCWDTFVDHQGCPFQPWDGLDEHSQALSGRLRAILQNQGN", "assay": "Dose Response confirmation of small molecule APOBEC3A DNA Deaminase Inhibitors via a fluorescence-based single-stranded DNA deaminase assay. [Related pubchem assays (depositor defined):AID493011, AID493024]", "assay_type": "functional"}, "[4]": {"biological_target": "DNA dC->dU-editing enzyme APOBEC-3G (Homo sapiens, UniProt Q9HC16)", "sequence (Q9HC16 whole entry)": "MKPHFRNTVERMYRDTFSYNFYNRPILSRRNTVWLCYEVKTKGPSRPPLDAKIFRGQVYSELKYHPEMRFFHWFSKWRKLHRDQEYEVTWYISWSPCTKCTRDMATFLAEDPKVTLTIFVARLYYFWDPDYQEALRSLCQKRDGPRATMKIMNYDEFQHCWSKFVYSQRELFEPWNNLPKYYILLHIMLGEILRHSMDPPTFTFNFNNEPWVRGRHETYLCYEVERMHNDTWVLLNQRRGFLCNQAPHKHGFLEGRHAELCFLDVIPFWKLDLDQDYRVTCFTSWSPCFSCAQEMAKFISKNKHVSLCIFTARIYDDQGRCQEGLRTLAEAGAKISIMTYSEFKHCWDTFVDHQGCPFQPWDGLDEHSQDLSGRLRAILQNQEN", "assay_type": "functional"}, "Estrogen receptor beta": {"biological_target": "Estrogen receptor beta (Homo sapiens, UniProt Q92731)", "sequence (Q92731 whole entry)": "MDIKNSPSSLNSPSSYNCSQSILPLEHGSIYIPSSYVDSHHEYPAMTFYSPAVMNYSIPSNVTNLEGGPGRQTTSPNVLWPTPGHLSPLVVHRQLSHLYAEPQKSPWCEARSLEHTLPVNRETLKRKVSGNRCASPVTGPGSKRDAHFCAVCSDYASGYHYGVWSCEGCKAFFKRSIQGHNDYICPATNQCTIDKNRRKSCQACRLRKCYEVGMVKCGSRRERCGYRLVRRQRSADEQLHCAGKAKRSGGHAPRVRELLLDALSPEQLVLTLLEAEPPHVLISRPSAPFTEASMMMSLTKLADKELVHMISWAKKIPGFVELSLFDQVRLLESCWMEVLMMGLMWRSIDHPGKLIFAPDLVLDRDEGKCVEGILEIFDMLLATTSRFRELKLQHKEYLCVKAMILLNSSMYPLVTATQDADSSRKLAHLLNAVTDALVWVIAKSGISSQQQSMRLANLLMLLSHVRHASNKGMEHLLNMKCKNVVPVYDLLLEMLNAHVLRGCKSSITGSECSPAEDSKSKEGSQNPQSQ"}, "[5]": {"assay": "P. falciparum late gametocyte killing, dose response, luminescence (AID 1117278);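 also: gametocytes exposed to compound for 24 hours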", "assay_type": "functional, cell-based"}, "[6]": {"assay": "Jurkat T cell cytotoxicity, dose response, cytotoxicity control for P. falciparum gametocyte viability project, luminescence (AID 1117277);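 also: potency reflects loss of cellular ATP meaning fewer viable cells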", "assay_type": "functional, cell-based"}, "[7]": {"assay": "THP-1 cell cytotoxicity, dose response, cytotoxicity control for Vif-APOBEC3G degradation inhibitor project, THP-1 cells (AID 1117359)", "assay_type": "functional", "settings": "Human immunodeficiency virus 1, THP-1"}, "[8]": {"assay": "cytotoxicity in HEK-293T cells, dose response, cytotoxicity control for BCR NF-kB inhibitor project, luminescence, B-cell screen hits (AID 489021);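 also: HEK-293T cells carrying an NF-kB luciferase reporter; cells exposed to compound for about 14 hours before viability readout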", "assay_type": "functional, cell-based"}, "[9]": {"assay": "A Cell Based Secondary Assay To Explore Cytotoxicity of Compounds that Sensitize Mycobacterium Tuberculosis to Beta-Lactam Antibiotics.", "assay_type": "functional"}, "[10]": {"biological_target": "Eukaryotic translation initiation factor 4E (Mus musculus, UniProt P63073)", "sequence (P63073 whole entry)": "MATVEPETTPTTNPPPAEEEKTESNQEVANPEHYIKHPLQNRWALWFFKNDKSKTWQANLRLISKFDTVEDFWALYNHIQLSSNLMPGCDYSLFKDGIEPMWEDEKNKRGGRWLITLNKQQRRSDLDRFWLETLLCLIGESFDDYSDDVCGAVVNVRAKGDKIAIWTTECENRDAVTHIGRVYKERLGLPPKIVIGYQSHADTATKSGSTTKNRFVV", "assay": "eIF4E–eIF4G protein interaction inhibitors, dose response, biochemical, TR-FRET (AID 855);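 also: potency for disrupting eIF4E binding to eIF4GI seen as loss of FRET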", "assay_type": "functional"}, "[11]": {"assay": "cytotoxicity in HEK-293T cells, dose response, cytotoxicity control for TCR NF-kB inhibitor project, luminescence, T-cell screen hits (AID 489026);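 also: cells exposed to compound about 14 hours before the viability readout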", "assay_type": "functional, cell-based"}, "[12]": {"biological_target": "T2, Rac GTPase-activating protein 1 (Homo sapiens, UniProt Q9H0H5)", "T2 sequence (Q9H0H5 whole entry)": "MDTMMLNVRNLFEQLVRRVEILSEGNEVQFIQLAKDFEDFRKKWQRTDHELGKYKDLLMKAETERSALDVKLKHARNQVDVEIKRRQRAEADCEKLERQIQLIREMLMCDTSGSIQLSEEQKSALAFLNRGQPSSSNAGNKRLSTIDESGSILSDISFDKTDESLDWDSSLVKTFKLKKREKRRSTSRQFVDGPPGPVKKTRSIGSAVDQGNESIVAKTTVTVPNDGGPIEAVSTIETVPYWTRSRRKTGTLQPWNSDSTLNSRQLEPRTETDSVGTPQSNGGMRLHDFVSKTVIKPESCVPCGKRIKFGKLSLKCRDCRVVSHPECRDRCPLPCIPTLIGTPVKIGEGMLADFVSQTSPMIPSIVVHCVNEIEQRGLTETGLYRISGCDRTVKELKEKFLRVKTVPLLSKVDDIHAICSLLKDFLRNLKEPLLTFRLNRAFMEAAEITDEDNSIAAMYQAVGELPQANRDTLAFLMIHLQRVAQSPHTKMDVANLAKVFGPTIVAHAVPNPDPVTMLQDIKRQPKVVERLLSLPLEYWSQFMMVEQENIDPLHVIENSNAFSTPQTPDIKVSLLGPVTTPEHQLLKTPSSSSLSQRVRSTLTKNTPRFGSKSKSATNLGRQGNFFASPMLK", "assay": "MgcRacGAP GTPase-activating activity inhibitors, confirmation, biochemical, ADP Hunter fluorescence, primary and confirmatory (AID 624330)", "assay_type": "functional"}}, "note": "Active and inactive are the calls of the source.", "data": [{"smiles": "COC(=O)c1c[nH]nc1N=C(S)Nc1ccc(C)cc1Cl", "values": [{"measurement": "EC50", "setting": "Streptokinase A", "result": "56.8 µM (active)"}, {"measurement": "IC50", "setting": "[1]", "result": "> 100 µM (active)"}, {"measurement": "EC50", "setting": "Streptococcus", "result": "> 150 µM (not active)"}, {"measurement": "EC50", "setting": "[2]", "result": "51.6 µM (active)"}]}, {"smiles": "CC(=O)OC(COC1C[C@@H]2CC[C@@]1(C)C2(C)C)C[N+]1(C)CCCCC1", "note": "(stereo partly drawn)", "values": [{"measurement": "IC50", "setting": "[3]", "result": "1.91 µM (active)"}, {"measurement": "IC50", "setting": "[4]", "result": "3.55 µM (active)"}]}, {"smiles": "CN(CC(O)COc1ccc(S(=O)(=O)N2CCOCC2)cc1)C1CCCCC1", "note": "(stereo not drawn)", "values": [{"measurement": "IC50", "setting": "Estrogen receptor beta", "result": "> 50 µM (not active)"}]}, {"smiles": "COc1ccc(CC(=O)Nc2ccc(C(N)=O)cc2)cc1", "values": [{"measurement": "IC50", "setting": "[5]", "result": "> 109 µM (inactive)"}, {"measurement": "IC50", "setting": "[6]", "result": "> 83.3 µM (inactive)"}]}, {"smiles": "O=C(Cn1cnc2c(nnn2Cc2ccc(Cl)cc2)c1=O)NCc1ccco1", "values": [{"measurement": "IC50", "setting": "[1]", "result": "> 100 µM (active)"}]}, {"smiles": "CC(=O)c1sc(NC(=O)C2CCN(C(=O)c3ccccc3C)CC2)nc1-c1ccccc1", "values": [{"measurement": "CC50", "setting": "[7]", "result": "> 40 µM (active)"}]}, {"smiles": "COCCCn1c(=O)/c(=C\\c2cccc(OC)c2OC)s/c1=C(/C#N)C(=O)Nc1ccc(C(=O)O)cc1", "values": [{"measurement": "IC50", "setting": "[8]", "result": "> 80 µM (inactive)"}, {"measurement": "CC50", "setting": "[9]", "result": "> 40 µM (active)"}]}, {"smiles": "Oc1cc(-c2ccccc2)nc2ccccc12", "values": [{"measurement": "IC50", "setting": "[10]", "result": "> 64 µM (inactive)"}, {"measurement": "IC50", "setting": "[11]", "result": "> 80 µM (inactive)"}]}, {"smiles": "Sc1nnc(-c2ccco2)n1/N=C/c1ccc(Cl)cc1", "values": [{"measurement": "IC50", "setting": "[12]", "result": "58.3 µM (active)"}, {"measurement": "IC50", "setting": "[10]", "result": "> 64 µM (inactive)"}]}, {"smiles": "Cc1ccc2c(c1)N=C(c1ccc(Cl)cc1)CO2", "values": [{"measurement": "IC50", "setting": "[1]", "result": "> 100 µM (active)"}]}]}
